The values that follow come from ChEMBL document CHEMBL2331190, “Synthesis of 1,4-bis(indolin-1-ylmethyl)benzene derivatives and their structure-activity relationships for the interaction of human carbonic anhydrase isoforms I and II” (Bioorg Med Chem, 2013).

One assay deals with Carbonic anhydrase 2 (Homo sapiens, UniProt P00918). Description: Inhibition of human carbonic anhydrase 2 using 4-nitrophenylacetate as substrate after 3 mins by spectrophotometric analysis.
The next assay concerns the target Carbonic anhydrase 1 (Homo sapiens, UniProt P00915). Description: Inhibition of human carbonic anhydrase 1 using 4-nitrophenylacetate as substrate after 3 mins by spectrophotometric analysis.

pKi: −log10 of the molar value.

Chain of Carbonic anhydrase 1 (P00915 whole entry): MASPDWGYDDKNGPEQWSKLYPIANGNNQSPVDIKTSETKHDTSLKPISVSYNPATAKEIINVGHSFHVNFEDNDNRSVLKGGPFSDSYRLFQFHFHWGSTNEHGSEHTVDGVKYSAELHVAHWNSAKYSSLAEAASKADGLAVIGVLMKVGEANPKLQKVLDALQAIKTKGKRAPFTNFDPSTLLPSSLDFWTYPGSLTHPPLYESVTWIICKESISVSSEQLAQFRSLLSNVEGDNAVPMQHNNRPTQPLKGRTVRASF

`c1ccc2c(c1)c1c(n2Cc2ccc(Cn3c4c(c5ccccc53)CCCC4)cc2)CCCC1`: the results for the pKi on Carbonic anhydrase 2 and at Carbonic anhydrase 1 were 6.60 and 4.41, respectively.

With `c1ccc2c(c1)c1c(n2Cc2ccc(Cn3c4c(c5ccccc53)CCCCC4)cc2)CCCCC1`, the pKi is 6.54 at Carbonic anhydrase 2 and 4.38 on Carbonic anhydrase 1.

In the case of `c1ccc2c(c1)c1c(n2Cc2ccc(Cn3c4c(c5ccccc53)CCC4)cc2)CCC1`, the pKi at Carbonic anhydrase 2 was 6.77; at Carbonic anhydrase 1, 4.37.
